Values of other authors in publication PMC2965246 (Nucleic Acids Research, 2010).

Test system: GRPR
Conditions: reported value

bombesin [BBN]
binding affinity to the GRPR: 79 nM
